Results published in US11738030B2, “Treatments for disturbed cerebral homeostasis” (Aneuryst, Inc., priority 2021, dated 2023).
Structures can show the parent of a compound that is named as a salt. Where two headings read alike, the source gives them in different places.

Assays:
[1] = Intraparenchymal ICP measurement in adult patient with suspected bacterial meningitis; assay type: in vivo; conditions: 60 mg intravenous infusion; adult patient with ICP>20 mmHg and suspected bacterial meningitis
Protocol: In an adult patient with an ICP>20 mmHg and suspected bacterial meningitis as determined by lumbar puncture, one would administer by intravenous infusion 60 mg fasudil hydrochloride. One would place an intraparenchymal device to measure ICP in the patient.

[2] = tested on: adult male Sprague-Dawley rats; conditions: cited from earlier work; for Garcia neurological score: SAH + HF
[3] = tested on: adult male Sprague-Dawley rats; conditions: cited from earlier work; for Mean percentage of brain water content, Cerebellum / Mean percentage of brain water content, Left Hemisphere / Mean percentage of brain water content, Right Hemisphere: 24 hrs post-surgery
[4] = tested on: adult male Sprague-Dawley rats; experiment: Brain water content after endovascular perforation in rats; assay type: in vivo, rat; conditions: one treatment, 24 h
Protocol: A sharpened 4-0 nylon suture was introduced into the left internal carotid artery of 92 adult male Sprague-Dawley rats weighing […]. In 65 of the 92 rats, the bifurcation of the anterior and middle cerebral arteries was endovascularly perforated; in the remaining 27 rats, the suture was withdrawn without perforation.
At 0.5 hours after the procedure, 34 of the 65 perforated rats were administered 1.5 ml of 0.9% saline (vehicle group), and the remaining 31 were administered 10 mg/kg hydroxyfasudil dissolved in 1.5 ml of 0.9% saline (hydroxyfasudil group). The 27 unperforated rats received neither vehicle nor […] (sham group).
24 hours after the procedure, all rats were sacrificed. The animals' brains were removed and separated into left hemisphere, right hemisphere, cerebellum and brain stem. Each part was weighed immediately after removal (wet weight) and after drying in 100° C. for 72 h (dry weight). The percentage of water content was calculated as [(wet weight−dry weight)/wet weight]×100%.

[5] = two treatments instead of one, and measurements at 72 hours after perforation
[6] = one treatment, 10 mg/kg at 0.5 h after perforation, 10 mg/kg
[7] = one treatment, 10 mg/kg at 0.5 h after perforation, listed as HF, 10 mg/kg

SMILES: O=S(=O)(c1cccc2cnccc12)N1CCCNCC1 [fasudil hydrochloride]
- ICP upon fasudil infusion [1]: reduction of ICP

SMILES: O=c1[nH]ccc2c(S(=O)(=O)N3CCCNCC3)cccc12 [hydroxyfasudil]
- Garcia neurological score ([2]; 1 treatment, 24 hrs, score out of 18): 14
- Garcia neurological score ([2]; 1 treatment, 72 hrs): 14
- Garcia neurological score ([2]; 2 treatments, 24 hrs): 15.5
- Difference in neurological performance between vehicle group and hydroxyfasudil group [2, 5]: failed to demonstrate any significant differences
- Mean percentage of brain water content, Cerebellum [3, 6]: ~78.7%
- Mean percentage of brain water content, Left Hemisphere [3, 6]: ~79.3%
- Mean percentage of brain water content, Right Hemisphere [3, 6]: ~79.25%
- Mean percentage of brain water content, Cerebellum [3, 7]: 78.7%
- Mean percentage of brain water content, Left Hemisphere [3, 7]: 79.3%
- Mean percentage of brain water content, Right Hemisphere [3, 7]: 79.35%
- Difference in brain water content between vehicle group and hydroxyfasudil group [3, 5]: failed to demonstrate any significant differences
- Mean percentage of brain water content, Cerebellum ([3]; two treatments): 78.84%
- Mean percentage of brain water content, Left Hemisphere ([3]; two treatments): 79.3%
- Mean percentage of brain water content, Right Hemisphere ([3]; two treatments): 79.25%
- Increase in water content versus sham group, right hemisphere ([4]; vehicle increase 0.5%): about 0.25%
- Increase in water content versus sham group, cerebellum ([4]; vehicle increase 0.6%): about 0.2%
- Increase in water content versus sham group, left hemisphere ([4]; vehicle increase 0.7%): about 0.3%
- Improvement in water content increase, left hemisphere ([4]; versus vehicle, p<0.01): about 57%
- Improvement in water content increase, right hemisphere ([4]; versus vehicle, p<0.01): about 70%
- Improvement in water content increase, cerebellum ([4]; versus vehicle, p<0.05): about 67%
